The experiment can be described thus: RSV-A Assay: The description is Japanese.
By EC50 is commonly meant the concentration at which the effect is half-maximal. Low values mean an effect from little substance, high ones a need for much substance. As for `O=C1Nc2ccccc2C(c2ccccc2)=N[C@@H]1Nc1nnc(-c2ncc(C3=CCCCC3)cc2N2CCOCC2)o1`, the EC50 entry is “in the range around 600 nM”. The result for `O=C1Nc2ccccc2C(c2ccccc2)=N[C@@H]1Nc1nnc(-c2ncc(C3CCCCC3)cc2N2CCOCC2)o1` reads less than 400 nM.

Turning to `O=C1Nc2ccccc2C(c2ccccc2)=NC1Nc1nnc(-c2cc3cccnc3s2)o1` (configuration not stated), the EC50 is greater than 800 nM.

For `O=C1Nc2ccccc2C(c2ccccc2)=NC1Nc1nnc(-c2cccnc2N2CC3CCC(C2)O3)o1` (configuration not stated), the EC50 result was “in the range around 600 nM”. The result for `O=C1Nc2ccccc2C(c2ccccc2)=NC1Nc1nnc(-c2ccc(-n3cccn3)nc2)o1` (configuration not stated) reads greater than 800 nM. As to `COc1ccc(-c2ccc(NC3N=C(c4ccccc4)c4ccccc4NC3=O)nn2)cc1` (configuration not stated), the half-maximal effective concentration (EC50) was greater than 800 nM. The result for `O=C1Nc2ccccc2C(c2ccccc2)=NC1Nc1nnc(-c2ccc(-n3cccn3)cc2)o1` (configuration not stated) reads “in the range around 600 nM”; that for `O=C1Nc2ccccc2C(c2ccccc2)=NC1Nc1nnc(-c2ccccc2OC2CCOCC2)o1` (configuration not stated), greater than 800 nM; that for `N#Cc1cnc(-c2nnc(N[C@H]3N=C(c4ccccc4)c4ccccc4NC3=O)o2)c(N2CCOCC2)c1`, less than 400 nM. The result for `Cc1cc(-c2nnc(N[C@H]3N=C(c4ccccc4)c4ccccc4NC3=O)o2)c(N2CCOCC2)s1` reads less than 400 nM; that for `O=C1Nc2ccccc2C(c2ccccc2)=N[C@@H]1Nc1nnc(-c2ncc(C(F)(F)F)cc2C2CC2)o1`, greater than 800 nM; that for `COC1CN(c2ncccc2-c2nnc(NC3N=C(c4ccccc4)c4ccccc4NC3=O)o2)C1` (configuration not stated), greater than 800 nM.

`O=C1Nc2ccccc2C(c2ccccc2)=NC1Nc1nnc(-c2cccnn2)o1` (configuration not stated): the EC50 is greater than 800 nM. Regarding `O=C1Nc2ccccc2C(c2ccccc2)=N[C@@H]1Nc1nnc(-c2nc(C3CCC3)sc2N2CCOCC2)o1`, the concentration giving a half-maximal response (EC50) was less than 400 nM. The result for `O=C1Nc2ccccc2C(c2ccccc2)=NC1Nc1nnc(-c2ccc(C(F)(F)F)nc2N2CCOCC2)o1` (configuration not stated) reads “in the range around 600 nM”; that for `O=C1Nc2ccccc2C(c2ccccc2)=NC1Nc1nnc(-c2ccccc2-n2cccn2)o1` (configuration not stated), greater than 800 nM.

`O=C1Nc2ccccc2C(c2ccccc2)=NC1Nc1nnc(-c2cccnc2N2C3CCC2COC3)o1` (configuration not stated) returned an EC50 greater than 800 nM.

Take `O=C1Nc2ccccc2C(c2cccc(F)c2)=NC1Nc1nnc(-c2ccc(F)cc2)o1` (configuration not stated): the concentration for a half-maximal effect (EC50) result is “in the range around 600 nM”. For the compound `NNC(=O)c1ccc(N2CCOCC2)cc1C(F)(F)F`, the half-maximal effective concentration (EC50) was greater than 800 nM. In the case of `CCOC(=O)c1nc(C)sc1NCCOC`, the EC50 was less than 400 nM. The result for `O=C1Nc2ccccc2C(c2ccccc2)=NC1Nc1nnc(-c2ccncn2)o1` (configuration not stated) reads greater than 800 nM; that for `CCOC(=O)c1nc(-c2cnn(C)c2)sc1N1CCOCC1`, less than 400 nM; that for `Cn1cc(-c2nnc(NC3N=C(c4ccccc4)c4ccccc4NC3=O)o2)cn1` (configuration not stated), “in the range around 600 nM”.

With `CCOC(=O)c1nc(C2(O)CCC2)sc1N1CCOCC1`, the concentration for a half-maximal effect (EC50) was less than 400 nM. The result for `O=C1Nc2ccccc2C(c2ccccc2)=NC1Nc1nnc(-c2ccc(OC3CCOCC3)cc2)o1` (configuration not stated) reads greater than 800 nM; that for `N#Cc1c[nH]c2cc(-c3nnc(N[C@H]4N=C(c5ccccc5)c5ccccc5NC4=O)o3)ccc12`, greater than 800 nM; that for `O=C1Nc2c(F)cccc2C(c2ccccc2)=N[C@H]1Nc1nnc(-c2ncc(C(F)(F)F)cc2N2CCOCC2)o1`, less than 400 nM. The result for `CO[C@@H]1COC[C@H]1Nc1cc(C(F)(F)F)cnc1-c1nnc(N[C@H]2N=C(c3ccccc3)c3ccccc3NC2=O)o1` reads less than 400 nM. Regarding `O=C1Nc2ccccc2C(c2ccccc2)=NC1Nc1nnc(-c2cccnc2)o1` (configuration not stated), the EC50 is greater than 800 nM. The result for `O=C1Nc2ccccc2C(c2ccccc2)=NC1Nc1nnc(C2CCNCC2)o1` (configuration not stated) reads greater than 800 nM; that for `O=C1Nc2ccccc2C(c2ccccc2)=NC1Nc1nnc(-c2cnco2)o1` (configuration not stated), greater than 800 nM; that for `Cc1nc2ccc(-c3nnc(NC4N=C(c5ccccc5)c5ccccc5NC4=O)o3)cc2s1` (configuration not stated), “in the range around 600 nM”. As for `COc1ccc(-c2nnc(NC3N=C(c4ccccc4)c4ccccc4NC3=O)o2)nc1` (configuration not stated), the EC50 result is “in the range around 600 nM”. The compound `CC1(C)C[C@@H]1c1nnc(NC2N=C(c3ccccc3)c3ccccc3NC2=O)o1` (some centres not stated) yielded a concentration giving a half-maximal response (EC50) greater than 800 nM. With `CSC(=N)NC1N=C(c2ccccc2)c2ccccc2NC1=O` (configuration not stated), the half-maximal effective concentration (EC50) is less than 400 nM. The result for `C[C@@H]1COCCN1c1cc(C(F)(F)F)cnc1-c1nnc(N[C@H]2N=C(c3ccccc3)c3ccccc3NC2=O)o1` reads less than 400 nM; that for `O=C1Nc2ccccc2C(c2ccccc2)=N[C@@H]1Nc1nnc(-c2nc3ccccc3cc2N2CCOCC2)o1`, less than 400 nM; that for `COc1ccccc1-c1nc(-c2nnc(N[C@H]3N=C(c4ccccc4)c4ccccc4NC3=O)o2)c(N2CCOCC2)s1`, less than 400 nM. The result for `O=C1Nc2ccccc2C(c2ccccc2)=NC1Nc1nnc(CC(F)(F)F)o1` (configuration not stated) reads greater than 800 nM. For `O=C1Nc2ccccc2C(c2ccccc2)=N[C@@H]1Nc1nnc(-c2ncc(C(F)(F)F)cc2N[C@@H]2CCC[C@@H]2O)o1`, the concentration for a half-maximal effect (EC50) result is “in the range around 600 nM”. The result for `CO[C@@H](C)CNc1sc(C(F)(F)F)nc1-c1nnc(N[C@H]2N=C(c3ccccc3)c3ccccc3NC2=O)o1` reads less than 400 nM; that for `O=C1Nc2ccccc2C(c2ccccc2)=N[C@@H]1Nc1nnc(-c2csc(N3CCOCC3)n2)o1`, “in the range around 600 nM”. The result for `COCCCc1sc(C(F)(F)F)nc1-c1nnc(N[C@H]2N=C(c3ccccc3)c3ccccc3NC2=O)o1` reads greater than 800 nM. The result for `COc1cnc(-c2nnc(NC3N=C(c4ccccc4)c4ccccc4NC3=O)o2)c(F)c1` (configuration not stated) reads greater than 800 nM; that for `O=C1Nc2ccccc2C(c2ccccc2)=NC1Nc1nnc(C2CC2)[nH]1` (configuration not stated), greater than 800 nM.

Compound `O=C1Nc2ccccc2C(c2ccccc2)=NC1Nc1nnc(-c2ccc(F)cc2N2CCOCC2)o1` (configuration not stated) displayed an EC50 of less than 400 nM. The result for `CC1(c2nnc(NC3N=C(c4ccccc4)c4ccccc4NC3=O)o2)CC1` (configuration not stated) reads greater than 800 nM; that for `O=C1Nc2ccccc2C(c2ccccc2)=N[C@@H]1Nc1nnc(-c2cn(-c3ccccn3)nc2N2CCOCC2)o1`, less than 400 nM. The result for `CCOC(=O)c1ccnc2ccc(OC)cc12` reads greater than 800 nM; that for `O=C1Nc2ccccc2C(c2ccccc2)=NC1Nc1nnc(-c2cccc(F)c2N2CCOCC2)o1` (configuration not stated), greater than 800 nM. The result for `Cc1nc(-c2nnc(N[C@H]3N=C(c4ccccc4)c4ccccc4NC3=O)o2)c(C2CCOCC2)s1` reads less than 400 nM. As to `COC[C@@H](C)Nc1sc(C(F)(F)F)nc1-c1nnc(N[C@H]2N=C(c3ccccc3)c3ccccc3NC2=O)o1`, the concentration for a half-maximal effect (EC50) result is “in the range around 600 nM”. The result for `O=C1Nc2ccccc2C(c2ccccc2)=NC1Nc1nc(-c2ccccc2)ns1` (configuration not stated) reads greater than 800 nM. The result for `O=C1Nc2ccccc2C(c2ccccc2)=NC1Nc1nnc(CCc2ccccc2)o1` (configuration not stated) reads greater than 800 nM; that for `O=C1Nc2ccccc2C(c2ccccc2)=NC1Nc1nnc(C2CCNC2)o1` (configuration not stated), greater than 800 nM.

Consider `O=C1Nc2ccccc2C(c2ccccc2)=NC1Nc1nc2ccc(Cl)cc2o1` (configuration not stated), for which the concentration for a half-maximal effect (EC50) is greater than 800 nM. The result for `O=c1c(Br)cccn1Cc1ccccc1` reads greater than 800 nM; that for `CCc1nc(N2CCOCC2)c(-c2nnc(N[C@H]3N=C(c4ccccc4)c4ccccc4NC3=O)o2)cc1C#N`, less than 400 nM. As to `O=C1Nc2ccccc2C(c2ccccc2)=NC1Nc1nnc(-c2ccncc2N2CCOCC2)o1` (configuration not stated), the EC50 result is “in the range around 600 nM”.

`O=C1Nc2ccccc2C(c2ccccc2)=N[C@@H]1Nc1nnc(-c2ncc(C(F)(F)F)cc2N2C3CCC2COC3)o1`: the EC50 is less than 400 nM. The result for `C[C@@H]1COCCN1c1ncccc1-c1nnc(NC2N=C(c3ccccc3)c3ccccc3NC2=O)o1` (some centres not stated) reads less than 400 nM; that for `O=C1Nc2ccccc2C(c2ccccc2)=NC1Nc1nnco1` (configuration not stated), greater than 800 nM; that for `C#Cc1nc(C(=O)O)c(N2CCOCC2)s1`, less than 400 nM. The result for `O=C(O)c1ccncc1N1CCCCC1` reads greater than 800 nM; that for `O=C1Nc2ccccc2C(c2ccccc2)=NC1Nc1nnc(-c2cc(C(F)(F)F)cnc2N2CCOCC2)o1` (configuration not stated), greater than 800 nM; that for `COCc1nnc(NC2N=C(c3ccccc3)c3ccccc3NC2=O)o1` (configuration not stated), greater than 800 nM.

For the compound `Cc1ccc(-c2nnc(N[C@H]3N=C(c4ccccc4)c4ccccc4NC3=O)o2)c(N2CC3CCC(C2)O3)n1`, the concentration for a half-maximal effect (EC50) was less than 400 nM.

`O=C1Nc2ccccc2C(c2ccccc2)=NC1Nc1nnc(-c2ccc(OC(F)(F)F)cc2)o1` (configuration not stated) displayed a 50% effective concentration (EC50) greater than 800 nM. The result for `COc1cc(-c2nnc(NC3N=C(c4ccccc4)c4ccccc4NC3=O)o2)ccn1` (configuration not stated) reads greater than 800 nM.

In turn, `CN1CCN(c2ccccc2-c2nnc(NC3N=C(c4ccccc4)c4ccccc4NC3=O)o2)CC1` (configuration not stated) gave an EC50 greater than 800 nM. The result for `COCCOc1ccccc1-c1nnc(NC2N=C(c3ccccc3)c3ccccc3NC2=O)o1` (configuration not stated) reads greater than 800 nM. The result for `O=C1Nc2ccccc2C(c2ccccc2)=N[C@@H]1Nc1nnc(-c2nc(C(F)(F)F)sc2N2CCO[C@H]3C[C@H]32)o1` reads less than 400 nM; that for `O=C1Nc2ccccc2C(c2ccccc2)=N[C@@H]1Nc1nnc(-c2cc(C(F)(F)F)sc2N2CCOCC2)o1`, less than 400 nM; that for `O=C1Nc2ccccc2C(c2ccccc2)=NC1Nc1nnc(-c2cccnc2N2CCOCC2)o1` (configuration not stated), less than 400 nM. The result for `N#Cc1cnc(-c2nnc(N[C@H]3N=C(c4ccccc4)c4ccccc4NC3=O)o2)c(N2C3CCC2COC3)c1` reads “in the range around 600 nM”; that for `CN(C)c1ccc(-c2nnc(NC3N=C(c4ccccc4)c4ccccc4NC3=O)o2)nc1` (configuration not stated), greater than 800 nM; that for `O=C1Nc2ccccc2C(c2ccccc2)=NC1Nc1nnc(-c2ccc3nc[nH]c3c2)o1` (configuration not stated), > 800 nM and in the range around 600 nM. `COc1ccccc1-c1nnc(NC2N=C(c3ccccc3)c3ccccc3NC2=O)o1` (configuration not stated) gave a 50% effective concentration (EC50) greater than 800 nM. `O=C1Nc2ccccc2C(c2ccccc2)=N[C@@H]1Nc1nnc(-c2ncc(C(F)(F)F)cc2NC[C@H]2CCCO2)o1`: the EC50 was less than 400 nM. With `Cc1nc(-c2nnc(N[C@H]3N=C(c4ccccc4)c4ccccc4NC3=O)o2)c(Cl)s1`, the concentration giving a half-maximal response (EC50) is greater than 800 nM. `O=C1Nc2ccccc2C(c2ccccc2)=N[C@@H]1Nc1nnc(-c2ccsc2N2CCOCC2)o1` displayed a concentration giving a half-maximal response (EC50) of less than 400 nM. The result for `COCCNc1ccc(-c2nnc(NC3N=C(c4ccccc4)c4ccccc4NC3=O)o2)cc1` (configuration not stated) reads greater than 800 nM.

(Values after ChEMBL document CHEMBL5729210, “Benzodiazepine derivatives as RSV inhibitors” (2022).)
